According to ChEMBL document CHEMBL1135235, “Structure-activity relationships of oxime neurokinin antagonists: oxime modifications” (Bioorg Med Chem Lett, 2002):

What was measured:
Assay type in all cases: cell-based
[1] = molecular target: T1, Substance-P receptor (Homo sapiens, UniProt P25103); experiment: Binding affinity against recombinant human tachykinin receptor 1 in CHO cells using [3H]-Sar SP as a radioligand
[2] = molecular target: T2, Substance-K receptor (Homo sapiens, UniProt P21452); experiment: (§1) Binding affinity against recombinant human tachykinin receptor 2 in CHO cells using [3H]NKA as a radioligand
T2 sequence (P21452 whole entry): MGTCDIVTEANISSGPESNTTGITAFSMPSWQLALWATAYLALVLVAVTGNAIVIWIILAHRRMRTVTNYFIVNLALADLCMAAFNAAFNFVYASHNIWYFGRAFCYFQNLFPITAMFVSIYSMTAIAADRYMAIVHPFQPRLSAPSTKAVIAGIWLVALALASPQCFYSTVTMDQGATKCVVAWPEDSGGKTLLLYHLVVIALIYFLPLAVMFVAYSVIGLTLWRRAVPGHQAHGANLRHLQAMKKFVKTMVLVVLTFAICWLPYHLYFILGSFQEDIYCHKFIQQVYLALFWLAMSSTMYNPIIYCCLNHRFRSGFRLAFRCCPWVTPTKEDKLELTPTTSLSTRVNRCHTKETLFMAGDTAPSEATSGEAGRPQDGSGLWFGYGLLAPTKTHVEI

[3] = molecular target: T3, Substance-K receptor (Homo sapiens) (UniProt P21452); experiment: as §1; parameters: concentration or dose not given beside the values; details: concentration not given here
T3 sequence (whole entry): T2 sequence (P21452 whole entry)

[4] = molecular target: T1, Substance-P receptor; experiment: The compound was evaluated for the binding affinity against recombinant human Tachykinin receptor 1 in CHO cells using [3H]-Sar SP as a radioligand; details: concentration not given here

T1 sequence (P25103 whole entry): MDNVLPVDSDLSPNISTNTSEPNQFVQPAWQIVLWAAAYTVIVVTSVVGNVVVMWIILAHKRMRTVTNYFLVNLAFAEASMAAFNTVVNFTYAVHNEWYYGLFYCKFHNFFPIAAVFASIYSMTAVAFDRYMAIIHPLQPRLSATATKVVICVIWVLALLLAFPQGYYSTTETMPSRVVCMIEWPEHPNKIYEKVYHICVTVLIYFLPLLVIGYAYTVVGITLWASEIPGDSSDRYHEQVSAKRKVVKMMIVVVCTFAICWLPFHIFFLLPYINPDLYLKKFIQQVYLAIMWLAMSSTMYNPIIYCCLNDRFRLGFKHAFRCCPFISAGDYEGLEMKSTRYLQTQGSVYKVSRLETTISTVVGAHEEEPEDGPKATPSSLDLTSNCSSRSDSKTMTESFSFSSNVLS

SMILES | Ki [1] | Ki [2] | inhibition [3] | inhibition [4]
CCO/N=C(\COCc1cc(C(F)(F)F)cc(C(F)(F)F)c1)C(CCN1CCC(O)(c2ccccc2)CC1)c1ccc(Cl)c(Cl)c1 (stereo not drawn) | 81 nM | 107 nM | – | –
CNC(=O)CO/N=C(\COCc1cc(C(F)(F)F)cc(C(F)(F)F)c1)C(CCN1CCC(O)(c2ccccc2)CC1)c1ccc(Cl)c(Cl)c1 (stereo not drawn) | 24 nM | 45 nM | – | –
CN(C/C(=N\OCCC[S+](C)[O-])C(CCN1CCC(N2CCCCC2=O)CC1)c1ccc(Cl)c(Cl)c1)C(=O)c1cc(Cl)cc(Cl)c1 (stereo not drawn) | 0.8 nM | 3.5 nM | – | –
O=C(COCc1cc(C(F)(F)F)cc(C(F)(F)F)c1)C(CCN1CCC(O)(c2ccccc2)CC1)c1ccc(Cl)c(Cl)c1 (stereo not drawn) | 15 nM | 236 nM | – | –
CO/N=C(\CN(C)C(=O)c1cc(Cl)cc(Cl)c1)C(CCN1CCC(N2CCCCC2=O)CC1)c1ccc(Cl)c(Cl)c1 (stereo not drawn) | 4.7 nM | 1.6 nM | – | –
CSCCCO/N=C(\CN(C)C(=O)c1cc(Cl)cc(Cl)c1)C(CCN1CCC(N2CCCCC2=O)CC1)c1ccc(Cl)c(Cl)c1 (stereo not drawn) | 7.4 nM | 11.5 nM | – | –
C=CCO/N=C(\COCc1cc(C(F)(F)F)cc(C(F)(F)F)c1)C(CCN1CCC(O)(c2ccccc2)CC1)c1ccc(Cl)c(Cl)c1 (stereo not drawn) | 100 nM | 215 nM | – | –
CONC(COCc1cc(C(F)(F)F)cc(C(F)(F)F)c1)C(CCN1CCC(O)(c2ccccc2)CC1)c1ccc(Cl)c(Cl)c1 (stereo not drawn) | 25 nM | 350 nM | – | –
COCO/N=C(\COCc1cc(C(F)(F)F)cc(C(F)(F)F)c1)C(CCN1CCC(O)(c2ccccc2)CC1)c1ccc(Cl)c(Cl)c1 (stereo not drawn) | 49 nM | 42 nM | – | –
CC/C=C(\COCc1cc(C(F)(F)F)cc(C(F)(F)F)c1)C(CCN1CCC(O)(c2ccccc2)CC1)c1ccc(Cl)c(Cl)c1 (stereo not drawn) | 57 nM | – | 28% | –
CN(C/C(=N\OCCN1CCNCC1)C(CCN1CCC(N2CCCCC2=O)CC1)c1ccc(Cl)c(Cl)c1)C(=O)c1cc(Cl)cc(Cl)c1 (stereo not drawn) | 0.5 nM | 50 nM | – | –
OC1(c2ccccc2)CCN(CCC(/C(COCc2cc(C(F)(F)F)cc(C(F)(F)F)c2)=N/Oc2ccccc2)c2ccc(Cl)c(Cl)c2)CC1 (stereo not drawn) | – | – | 23% | 32%
COCCNC(=O)CO/N=C(\CN(C)C(=O)c1cc(Cl)cc(Cl)c1)C(CCN1CCC(N2CCCCC2=O)CC1)c1ccc(Cl)c(Cl)c1 (stereo not drawn) | 2.2 nM | 48 nM | – | –
CN(C/C(=N\OCCCS(=O)(=O)O)C(CCN1CCC(N2CCCCC2=O)CC1)c1ccc(Cl)c(Cl)c1)C(=O)c1cc(Cl)cc(Cl)c1 (stereo not drawn) | 3.3 nM | 2.7 nM | – | –
CN(C/C(=N\OCCn1ccnc1)C(CCN1CCC(N2CCCCC2=O)CC1)c1ccc(Cl)c(Cl)c1)C(=O)c1cc(Cl)cc(Cl)c1 (stereo not drawn) | 2.8 nM | 5.4 nM | – | –
COCCO/N=C(\COCc1cc(C(F)(F)F)cc(C(F)(F)F)c1)C(CCN1CCC(O)(c2ccccc2)CC1)c1ccc(Cl)c(Cl)c1 (stereo not drawn) | 7 nM | 50 nM | – | –
CN(C/C(=N\OCCCn1cnnn1)C(CCN1CCC(N2CCCCC2=O)CC1)c1ccc(Cl)c(Cl)c1)C(=O)c1cc(Cl)cc(Cl)c1 (stereo not drawn) | 0.8 nM | 17 nM | – | –
CN(C/C(=N\OCC(=O)O)C(CCN1CCC(N2CCCCC2=O)CC1)c1ccc(Cl)c(Cl)c1)C(=O)c1cc(Cl)cc(Cl)c1 (stereo not drawn) | 0.7 nM | 394 nM | – | –
CN(C/C(=N\OCC(=N)NO)[C@H](CCN1CCC(N2CCCCC2=O)CC1)c1ccc(Cl)c(Cl)c1)C(=O)c1cc(Cl)cc(Cl)c1 | 0.4 nM | 0.5 nM | – | –
CN(C/C(=N\OC(F)F)C(CCN1CCC(N2CCCCC2=O)CC1)c1ccc(Cl)c(Cl)c1)C(=O)c1cc(Cl)cc(Cl)c1 (stereo not drawn) | 1.7 nM | 5 nM | – | –
CN(C/C(=N\OCCCn1ccnc1)C(CCN1CCC(N2CCCCC2=O)CC1)c1ccc(Cl)c(Cl)c1)C(=O)c1cc(Cl)cc(Cl)c1 (stereo not drawn) | 1.6 nM | 6.8 nM | – | –
CN(C/C(=N\OCc1c[nH]cn1)C(CCN1CCC(N2CCCCC2=O)CC1)c1ccc(Cl)c(Cl)c1)C(=O)c1cc(Cl)cc(Cl)c1 (stereo not drawn) | 2.2 nM | 8.5 nM | – | –
CN(C/C(=N\OCF)C(CCN1CCC(N2CCCCC2=O)CC1)c1ccc(Cl)c(Cl)c1)C(=O)c1cc(Cl)cc(Cl)c1 (stereo not drawn) | 0.8 nM | 0.8 nM | – | –
NC(=O)CO/N=C(\COCc1cc(C(F)(F)F)cc(C(F)(F)F)c1)C(CCN1CCC(O)(c2ccccc2)CC1)c1ccc(Cl)c(Cl)c1 (stereo not drawn) | 17 nM | 58 nM | – | –
CN(C)/N=C(\COCc1cc(C(F)(F)F)cc(C(F)(F)F)c1)C(CCN1CCC(O)(c2ccccc2)CC1)c1ccc(Cl)c(Cl)c1 (stereo not drawn) | 38 nM | 24 nM | – | –

SMILES | Ki [1] | Ki [2] | inhibition [3] | inhibition [4]
CN(C/C(=N\OCC(=O)NO)C(CCN1CCC(N2CCCCC2=O)CC1)c1ccc(Cl)c(Cl)c1)C(=O)c1cc(Cl)cc(Cl)c1 (stereo not drawn) | 1.2 nM | 4.2 nM | – | –
CN(C/C(=N\OCC(N)=O)C(CCN1CCC(N2CCCCC2=O)CC1)c1ccc(Cl)c(Cl)c1)C(=O)c1cc(Cl)cc(Cl)c1 (stereo not drawn) | 0.9 nM | 2 nM | – | –
OCCO/N=C(\COCc1cc(C(F)(F)F)cc(C(F)(F)F)c1)C(CCN1CCC(O)(c2ccccc2)CC1)c1ccc(Cl)c(Cl)c1 (stereo not drawn) | 20 nM | 14 nM | – | –
CN(C/C(=N\OCCCNS(C)(=O)=O)C(CCN1CCC(N2CCCCC2=O)CC1)c1ccc(Cl)c(Cl)c1)C(=O)c1cc(Cl)cc(Cl)c1 (stereo not drawn) | 1.2 nM | 4.5 nM | – | –
CN(C/C(=N\OCC#N)C(CCN1CCC(N2CCCCC2=O)CC1)c1ccc(Cl)c(Cl)c1)C(=O)c1cc(Cl)cc(Cl)c1 (stereo not drawn) | 1.5 nM | 1.4 nM | – | –
O=C(O)CO/N=C(\COCc1cc(C(F)(F)F)cc(C(F)(F)F)c1)C(CCN1CCC(O)(c2ccccc2)CC1)c1ccc(Cl)c(Cl)c1 (stereo not drawn) | 8 nM | – | 20% | –
CN(C/C(=N\OCCO)C(CCN1CCC(N2CCCCC2=O)CC1)c1ccc(Cl)c(Cl)c1)C(=O)c1cc(Cl)cc(Cl)c1 (stereo not drawn) | 0.6 nM | 0.8 nM | – | –
CN(C/C(=N\OCCCO)C(CCN1CCC(N2CCCCC2=O)CC1)c1ccc(Cl)c(Cl)c1)C(=O)c1cc(Cl)cc(Cl)c1 (stereo not drawn) | 0.7 nM | 1.5 nM | – | –
CO/C=C(\COCc1cc(C(F)(F)F)cc(C(F)(F)F)c1)C(CCN1CCC(O)(c2ccccc2)CC1)c1ccc(Cl)c(Cl)c1 (stereo not drawn) | 33 nM | – | 35% | –
CC(C)CO/N=C(\COCc1cc(C(F)(F)F)cc(C(F)(F)F)c1)C(CCN1CCC(O)(c2ccccc2)CC1)c1ccc(Cl)c(Cl)c1 (stereo not drawn) | – | – | 11% | 43%
CN(C/C(=N\OCCCn1cncn1)C(CCN1CCC(N2CCCCC2=O)CC1)c1ccc(Cl)c(Cl)c1)C(=O)c1cc(Cl)cc(Cl)c1 (stereo not drawn) | 0.7 nM | 4.8 nM | – | –
CC(C)(C)O/N=C(\COCc1cc(C(F)(F)F)cc(C(F)(F)F)c1)C(CCN1CCC(O)(c2ccccc2)CC1)c1ccc(Cl)c(Cl)c1 (stereo not drawn) | – | – | 28% | 46%
COC(=O)CO/N=C(\COCc1cc(C(F)(F)F)cc(C(F)(F)F)c1)C(CCN1CCC(O)(c2ccccc2)CC1)c1ccc(Cl)c(Cl)c1 (stereo not drawn) | 25 nM | 198 nM | – | –
N=C(CO/N=C(\COCc1cc(C(F)(F)F)cc(C(F)(F)F)c1)C(CCN1CCC(O)(c2ccccc2)CC1)c1ccc(Cl)c(Cl)c1)NO (stereo not drawn) | 17 nM | 19 nM | – | –
CN(C/C(=N\OCCCn1cccn1)C(CCN1CCC(N2CCCCC2=O)CC1)c1ccc(Cl)c(Cl)c1)C(=O)c1cc(Cl)cc(Cl)c1 (stereo not drawn) | 1.7 nM | 25 nM | – | –
CN(C/C(=N\OCCC[N+](C)(C)C)C(CCN1CCC(N2CCCCC2=O)CC1)c1ccc(Cl)c(Cl)c1)C(=O)c1cc(Cl)cc(Cl)c1 (stereo not drawn) | 1.8 nM | 590 nM | – | –
CN(C/C(=N\OCC(C)(C)O)C(CCN1CCC(N2CCCCC2=O)CC1)c1ccc(Cl)c(Cl)c1)C(=O)c1cc(Cl)cc(Cl)c1 (stereo not drawn) | 1.9 nM | 23 nM | – | –
COCCO/N=C(\CN(C)C(=O)c1cc(Cl)cc(Cl)c1)C(CCN1CCC(N2CCCCC2=O)CC1)c1ccc(Cl)c(Cl)c1 (stereo not drawn) | 2.4 nM | 3.1 nM | – | –
COC(=O)CO/N=C(\CN(C)C(=O)c1cc(Cl)cc(Cl)c1)C(CCN1CCC(N2CCCCC2=O)CC1)c1ccc(Cl)c(Cl)c1 (stereo not drawn) | 4.7 nM | 16.7 nM | – | –
CNC(=O)NCCCO/N=C(\CN(C)C(=O)c1cc(Cl)cc(Cl)c1)C(CCN1CCC(N2CCCCC2=O)CC1)c1ccc(Cl)c(Cl)c1 (stereo not drawn) | 1 nM | 1.7 nM | – | –
CN(C)CCO/N=C(\COCc1cc(C(F)(F)F)cc(C(F)(F)F)c1)C(CCN1CCC(O)(c2ccccc2)CC1)c1ccc(Cl)c(Cl)c1 (stereo not drawn) | 103 nM | – | 11% | –
N#CO/N=C(\COCc1cc(C(F)(F)F)cc(C(F)(F)F)c1)C(CCN1CCC(O)(c2ccccc2)CC1)c1ccc(Cl)c(Cl)c1 (stereo not drawn) | 15 nM | 19 nM | – | –
CN(C/C(=N\OCCCS(C)(=O)=O)C(CCN1CCC(N2CCCCC2=O)CC1)c1ccc(Cl)c(Cl)c1)C(=O)c1cc(Cl)cc(Cl)c1 (stereo not drawn) | 0.9 nM | 3.2 nM | – | –
CN(C/C(=N\OCCCN)C(CCN1CCC(N2CCCCC2=O)CC1)c1ccc(Cl)c(Cl)c1)C(=O)c1cc(Cl)cc(Cl)c1 (stereo not drawn) | 0.7 nM | 8.8 nM | – | –
